Measured values: patent US7348402B2, “Antimicrobial peptide, its analogs and antimicrobial composition comprising them” (priority 2002, dated 2008)
No end group written: not given here.

Key:
Type in all cases: cell-based
[1] = tested on: E. coli; experiment: Cell penetration activity by confocal microscopy (FITC-labeled peptides); conditions: FITC-labeled peptide applied to fixed E. coli for 5 minutes
Protocol: FIGS. 1A˜1D are the results of analyzing the cell penetration activity of the new antimicrobial peptides by confocal microscopy. To emphasize the location of the antimicrobial peptides, color was eliminated from the images. The white area in FIGS. 1A˜1D is the antimicrobial peptide penetrated within the cell.
The cell penetration activity of the peptides prepared in Example 1 was observed by confocal microscopy. After inoculating and culturing E. coli in trypticase soy broth at 37° C. overnight, they were inoculated in new media and cultured for 2 hours to exponential growth phase. After washing E. coli with 10 mM NAPB (sodium phosphate buffer) and diluting to 10^5 CFU/ml, the above diluted E. coli was fixed for 30 min on glass-slides coated with poly-L-lysine. The N-terminus of the peptides prepared in Example 1 was labeled with FITC (fluoresceinisothicyanate), and the labeled peptides were applied to E. coli fixed on the glass-slides for 5 minutes. The glass-slides were washed with 10 mM NAPB and observed them by confocal microscopy.

[2] = tested on: human red blood cells (hRBC); experiment: Hemolytic activity on human red blood cells
Protocol: After separating the precipitated human red blood cells (hRBC) from 3 ml of human blood, they were washed with PBS (phosphate buffered saline) and diluted to make the total volume of 20 ml. In 190 μl of the prepared hRBC solution, 10 μl of each peptide sample (4 μg/μl ) prepared in Example 1 was added to make the final concentration of 200 μg/ml, reacted for 1 h at 37° C. and centrifuged for 5 min at 4000 rpm. […] The absorbance of the sample treated with 0.2% Triton X-100 was set to represent 100% hemolysis and the percent (%) hemolysis of each sample was relatively calculated from each measured absorbance, as shown in Table 3.

[3] = tested on: Bacillus subtilis (ATCC 62037); conditions: ATCC 62037, 12 h
In short: (§1)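 Inoculum: exponential-phase cells (2 h subculture after overnight growth), 10^5 per 1 ml. Media/temperature: TSB, 37° C for bacteria; SAB, 30° C for fungi. Peptides added as serial dilutions; microdilution MIC.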

[4] = tested on: Candida albicans (ATCC 10231); conditions: ATCC 10231, 12 h
In short: as §1

[5] = tested on: Cryptococcus neoformans (ATCC 34881); conditions: ATCC 34881, 12 h
In short: as §1

[6] = tested on: Escherichia coli (ATCC 27325); conditions: ATCC 27325, 12 h
In short: as §1

[7] = tested on: Pseudomonas putida (ATCC 17426); conditions: ATCC 17426, 12 h
In short: as §1

[8] = tested on: Saccharomyces cerevisiae (ATCC 44774); conditions: ATCC 44774, 12 h
In short: as §1

[9] = tested on: Salmonella enteritidis (ATCC 15277); conditions: ATCC 15277, 12 h
In short: as §1

[10] = tested on: Staphylococcus aureus (ATCC 15752); conditions: ATCC 15752, 12 h
In short: as §1

[11] = tested on: Streptococcus mutans (ATCC 25175); conditions: ATCC 25175, 12 h
In short: as §1

Compound | cell penetration activity [1] | A567 ([2]; absorbance of supernatant diluted 10 times, peptide 200 μg/ml, 1 h at 37° C.) | hemolysis of hRBC (in words) ([2]; concentration of 200 μg/ml) | Minimum Inhibitory Concentration [3] [µg/mL] | Minimum Inhibitory Concentration [4] [µg/mL] | Minimum Inhibitory Concentration [5] [µg/mL] | Minimum Inhibitory Concentration [6] [µg/mL] | Minimum Inhibitory Concentration [7] [µg/mL] | Minimum Inhibitory Concentration [8] [µg/mL] | Minimum Inhibitory Concentration [9] [µg/mL] | Minimum Inhibitory Concentration [10] [µg/mL] | Minimum Inhibitory Concentration [11] [µg/mL]
33 (KLVRNWPIGKLVRKLVRKLVR; antimicrobial peptide) [compound 33] | penetrate into E. coli cells |  |  |  |  |  |  |  |  |  |  | 
CC[C@H](C)[C@H](NC(=O)CN)C(=O)NCC(=O)N[C@@H](C)C(=O)N[C@H](C(=O)N[C@@H](CC(C)C)C(=O)N[C@@H](CCCCN)C(=O)N[C@H](C(=O)N[C@@H](CC(C)C)C(=O)N[C@H](C(=O)N[C@H](C(=O)NCC(=O)N[C@@H](CC(C)C)C(=O)N1CCC[C@H]1C(=O)N[C@@H](C)C(=O)N[C@@H](CC(C)C)C(=O)N[C@H](C(=O)N[C@@H](CO)C(=O)N[C@@H](Cc1c[nH]c2ccccc12)C(=O)N[C@H](C(=O)N[C@@H](CCCCN)C(=O)N[C@@H](CCCNC(=N)N)C(=O)N[C@@H](CCCCN)C(=O)N[C@@H](CCCNC(=N)N)C(=O)N[C@@H](CCC(N)=O)C(=O)N[C@@H](CCC(N)=O)C(N)=O)[C@@H](C)CC)[C@@H](C)CC)[C@@H](C)O)[C@@H](C)O)C(C)C)C(C)C [Melittin, melittin] |  | 3.17 | destroy almost all hRBC |  |  |  |  |  |  |  |  | 
GIGKFLHSAKKFGKAFVGEIMNS [Magainin, magainin, reference compound] | bind with cell membrane |  |  |  |  |  |  |  |  |  |  | 
RVVRQWPIGRVVRRVVRRVVR [compound 1] |  |  |  | 2 | 2 | 1 | 1 | 1 | 2 | 1 | 1 | 2
RVVRRVVRRVVRNWPIGRVVR [compound 52] |  |  |  | 1 | 1 | 1 | 1 | 1 | 1 | 2 | 1 | 2
RVVRRVVRRVVRQWPIGRVVR [compound 35] |  |  |  | 1 | 1 | 1 | 2 | 1 | 2 | 1 | 1 | 1
SEQ ID NO: 1 (RVVRQWPIGRVVRRVVRRVVR; antimicrobial peptide) | penetrate into E. coli cells |  |  |  |  |  |  |  |  |  |  | 
